From US20250283800A1, “PROBES FOR FLUORESCENCE IMAGING” (The General Hospital Corporation, priority 2022, published 2025)

Assays:
[1] = Fluorescence emission before/after photolysis at pH=8 (spectroscopic studies of photo reactions); format: physicochemical
Experimental: FIG. 16. Spectroscopic studies of photo reactions for different FLASH-off probes. A. Schematic depiction of the photo reactions for FLASH-off 500-650 (1a-d respectively) with the absorbance and emission spectra scans of the photo reactions (5 μM) in (citric acid+Na2HPO4 buffer, pH=8) before (red) and after (dark) irradiation 1 min 365 nm lamp. All spectra were taken in triplicates. B. Pictures of solutions of panel A in white light (top and bottom) and under UV light (middle).
Photolysis experiments. Solutions for compounds 1a-d were made in the corresponding buffers (pH=3-8) at a concentration of 1-100 μM. The samples were irradiated using different UV light sources (i) LED light source (405 nm, 1.14 mW cm^−2, LuxeonStar SZ-05-U3); UV lamp (˜365 nm, 0.32 mW cm^−2; UVL-28 EL Series, UVP) at different power and time settings (1 s-5 min). Fluorescence intensity was measured at the corresponding λmax of emission before irradiation (t=0 min) and after irradiation (t=1, 2, 3, and 5 min). The data were plotted as the integrated fluorescence intensity normalized to the initial intensity (I=1).

[2] = test system: human FFPE tonsil sections; experiment: Multiplexed tissue imaging and quenching in FFPE tonsil sections
Experimental: FIG. 23. Quenching can be spatially controlled. A. Focused local quenching experiment (top) in tonsil tissue sections using an epifluorescent microscope. Local quenching was performed using a 40× magnification (DAPI, 8 s) and read-out was performed with 10× magnification (647 nm channel). (<90%) of fixed human tonsil stained with CD45-FLASH-off 650. Whole sample quenching (bottom) was achieved by soaking the sample with buffer at pH=8.4 and using an external 405 nm lamp placed at about 1 cm distance for 2 min. Scale bar=[…] (top), […] (bottom).
Human tissue sections. De-identified formaldehyde-fixed paraffin-embedded tissue sections were commercially obtained from Biomax (HuFOT161, Biomax). Tissue sections were de-paraffinized, rehydrated, and antigen-retrieved in pH 9antigen retrieval buffer. Then sections were blocked with Intercept Blocking buffer (LI-COR) for 30 min before antibody staining for FLASH-off FFPE. Tissues were incubated with FLASH-off antibody conjugates for 30 minutes followed by rinses. […]
We prepared four antibody-FLASH-off conjugates that recognize human immune markers including CD45, CD11c, CD11b, and Pan-CK. […] Regions of high immune cell density were localized and the location of the selected immune markers was assessed within the distinctive morphological structures of tonsils tissue. […]

SMILES: CNC(=O)c1ccccc1Cc1c2ccc(=N)c(S(=O)(=O)O)c-2oc2c(S(=O)(=O)O)c(N)ccc12 [Compound 7a]
- spirocyclization with increasing pH [1]: did not proceed with increasing pH

SMILES: N=C(N)c1ccc(-c2cc3ccc(C(=N)N)cc3[nH]2)cc1 [DAPI]
- signal intensity of non-photoquenchable stains after UV light irradiation [2]: without causing an apparent decrease in signal intensity
